We go through 15 molecules from PubChem BioAssay (NCI).

Holding throughout (experiment): NCI-60 cell line screen, 48 h
For experiment [1], the system named is OVCAR-4 ovarian.
Experiment [2] relates to HOP-62 NSCLC.
For experiment [3], the system named is 786-0 renal.
Experiment [4] has as its system NCI-H522 lung.
In experiment [5] the test system is A549 NSCLC.
In experiment [6] the test system is SF-539 CNS.
Experiment [7] concerns RXF 393 renal.
Experiment [8] has as its system LOX IMVI melanoma.
Experiment [9] has as its system TK-10 renal.

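A five-concentration, 48-hour dose response in 96-well plates underlies each endpoint, interpolated linearly between surrounding concentrations. GI50 = concentration required for 50% inhibition of growth. TGI is the concentration that stops growth completely.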 Where only a bound is given, the exact number is not on record here.

For `N#C/C(=C/c1ccsc1)C(=O)c1ccccc1`, the TGI in experiment [1], in experiment [2], in experiment [3], in experiment [4], in [5] and in experiment [6] was above 100 µM each time. Moreover, the TGI in [7], in experiment [8] and in experiment [9] was above 100 µM throughout.
As to `COC1C(CN[N+](=O)CC2OC3OC(C)(C)OC3C2OC)OC2OC(C)(C)OC21` (configuration not stated), the TGI in experiment [1], in experiment [2], in [3], in experiment [5], in experiment [6] and in [7] was above 100 µM throughout. For the same molecule, the TGI in experiment [8] and in experiment [9] was above 100 µM in each case.
`CCCCNC1=C(C(=O)OCC)C(=O)CO1`: the TGI in experiment [1], in experiment [2], in experiment [3], in [4], in experiment [5] and in experiment [6] was above 100 µM in each case. Moreover, the TGI in [7], in experiment [8] and in [9] was above 100 µM each time.
Regarding `CN(C(=O)C12C3C4C1C1C2C3C41C(=O)C(C)(C)C)C(C)(C)C` (configuration not stated), the TGI in experiment [1], in [2], in experiment [3], in experiment [4], in experiment [5] and in experiment [6] was above 100 µM each time. For the same molecule, the TGI in experiment [8] and in [9] was above 100 µM in each case.
Regarding `CC(=O)Nc1ccccc1Sc1ccccc1`, the TGI in experiment [1], in experiment [2], in [3], in experiment [4], in experiment [5] and in experiment [6] was above 100 µM in each case. Also, the TGI in [7], in [8] and in [9] was above 100 µM throughout.
Regarding `CC1(C)CC(/C=C2/OC(=O)c3ccccc32)=C(C#N)C(=O)O1`, the TGI in [1], in experiment [2], in [3], in [4], in experiment [5] and in [6] was above 100 µM each time. This molecule yielded a TGI in [8] above 100 µM.
Take `COc1ccc2cc1Oc1ccc(cc1)CC1c3cc(c(OC)cc3CCN1C)Oc1c3c(cc4c1C(C2)N(C)CC4)OCO3` (configuration not stated): the TGI in [1] worked out at 12.7 µM; in experiment [2], 29.8 µM; in experiment [3], 25.3 µM; in experiment [4], 20.3 µM; in [5], 30.6 µM; in experiment [6], 6.03 µM. Moreover, the TGI in experiment [7] is 6.24 µM; in experiment [8] it was 4.72 µM; in [9], 5.66 µM.
Turning to `COc1cc(C2c3cc4c(cc3C(NCC(O)CO)C3COC(=O)[C@H]23)OCO4)cc(OC)c1OC` (some centres not stated), the TGI in experiment [2] was 0.676 µM; in experiment [3], above 100 µM; in [6] it was 0.344 µM; in [8] it was above 100 µM; in [9], above 100 µM.
With `OCCC1(O)CCC(O)CC1` (configuration not stated), the TGI in experiment [1], in experiment [2], in [3], in experiment [4], in experiment [5] and in experiment [6] was above 100 µM in each case. Moreover, the TGI in experiment [8] and in experiment [9] was above 100 µM in each case.
With `N#CC(C(=N/O)/C(=N/O)C(C#N)c1ccc(Cl)cc1)c1ccc(Cl)cc1` (configuration not stated), the TGI is above 100 µM in experiment [1]; above 100 µM in [2]; above 100 µM in [3]; above 100 µM in experiment [5]; above 100 µM in experiment [6]; 98.7 µM in experiment [7]. Besides, the TGI in experiment [8] and in experiment [9] was above 100 µM throughout.
On to `Cc1cc2c(cc1C)[n+](=O)c(C(=O)CC(=O)C(=O)Nc1c(C(C)C)cccc1C(C)C)c(C)n2[O-]`, for which the TGI in experiment [1], in experiment [2], in experiment [3], in experiment [4], in experiment [5] and in [6] was above 100 µM throughout. Besides, the TGI in [7], in experiment [8] and in [9] was above 100 µM each time.
For `CC1(Cl)C(=O)NC(=O)N(C2CC(N=[N+]=[N-])C(CO)O2)C1N=[N+]=[N-]` (configuration not stated), the TGI in [1], in experiment [2], in experiment [3], in [4], in experiment [5] and in experiment [6] was above 100 µM throughout. Besides, the TGI in [7], in [8] and in experiment [9] was above 100 µM in each case.
In the case of `COc1ccc2[nH]c3c(C)c4c(c(C)c3c2c1)CN(C)CC4`, the TGI stood at 34.8 µM in [1]; 32.4 µM in [2]; 27.8 µM in experiment [3]; 33.4 µM in [4]; 33.9 µM in experiment [5]; 29.8 µM in experiment [6]. Also, the TGI in experiment [7] was determined as 36.2 µM; in experiment [8], 27.6 µM; in [9], 42.9 µM.
In the case of `COC(=O)C[C@H]1CCC2(OCCO2)[C@]1(C)C(=O)OC`, the TGI in experiment [1], in experiment [2], in experiment [3], in experiment [4], in experiment [5] and in experiment [6] was above 100 µM each time. Further, the TGI in experiment [7], in experiment [8] and in experiment [9] was above 100 µM in each case.
For the molecule `O=C1OCc2c1cc1ccc(O)c(OC3OC(CO)C(O)C(O)C3O)c1c2-c1ccc2c(c1)OCO2` (configuration not stated), the GI50 in experiment [1] was 56.2 µM; in [4], 22.6 µM. For the same molecule, the TGI in [1] was above 100 µM; in [2], above 100 µM; in experiment [3], above 100 µM; in experiment [4] it was 59.9 µM; in experiment [5], above 100 µM; in experiment [6], above 100 µM. Besides, the TGI in experiment [7], in experiment [8] and in [9] was above 100 µM throughout.
